According to paper PMC7460883, “Dual Substrate Specificity of the Rutinosidase from Aspergillus niger and the Role of Its Substrate Tunnel” (International Journal of Molecular Sciences, 2020):

Target: T1, AnRut (recombinant rutinosidase from Aspergillus niger) (Aspergillus niger, UniProt A0A6B9UJ04)
T1 construct: vector pPICZalphaA-RUT, secreted as fusion product by Pichia pastoris KM71H; crude culture medium, ca 66 kDa glycosylated (45 kDa deglycosylated), dimer
T1 sequence (A0A6B9UJ04 20-386): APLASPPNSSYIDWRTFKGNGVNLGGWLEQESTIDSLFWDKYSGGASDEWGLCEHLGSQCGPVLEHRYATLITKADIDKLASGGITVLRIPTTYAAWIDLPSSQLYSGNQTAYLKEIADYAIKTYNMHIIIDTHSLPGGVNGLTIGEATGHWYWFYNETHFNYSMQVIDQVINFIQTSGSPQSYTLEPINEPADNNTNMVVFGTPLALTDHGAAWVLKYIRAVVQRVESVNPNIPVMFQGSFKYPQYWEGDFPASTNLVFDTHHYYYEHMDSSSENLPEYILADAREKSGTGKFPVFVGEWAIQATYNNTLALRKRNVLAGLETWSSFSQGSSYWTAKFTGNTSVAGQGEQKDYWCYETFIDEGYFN
Assay: transglycosylation (glycosyl donor), TLC / product isolation
Format: biochemical
Settings: pH 3.5, 36 °C; crude culture medium with secreted recombinant enzyme; suspended substrate; acceptors 3-9

Row | Compound | transglycosylation (glycosyl donor), TLC / product isolation
1 | C[C@@H]1O[C@@H](OC[C@H]2O[C@@H](Oc3c(-c4ccc(O)c(O)c4)oc4cc(O)cc(O)c4c3=O)[C@H](O)[C@@H](O)[C@@H]2O)[C@H](O)[C@H](O)[C@H]1O [compound 1, rutin] | both AnRut activities, i.e., rutinosidase (with rutin donor) and glucosidase (with isoquercitrin donor)
2 | O=c1c(O[C@@H]2O[C@H](CO)[C@@H](O)[C@H](O)[C@H]2O)c(-c2ccc(O)c(O)c2)oc2cc(O)cc(O)c12 [compound 2, isoquercitrin] | both AnRut activities, i.e., rutinosidase (with rutin donor) and glucosidase (with isoquercitrin donor)
